# In the supplement of paper PMC10307832:
# Legend:
# Experiment in all cases: relative viability (nuclei count vs DMSO), 5 days (fraction); higher = more cells survive
# Lapatinib + Phenformin = compound: CS(=O)(=O)CCNCc1ccc(-c2ccc3ncnc(Nc4ccc(OCc5cccc(F)c5)c(Cl)c4)c3c2)o1 [Lapatinib] + N=C(N)NC(=N)NCCc1ccccc1 [Phenformin] (partner 250 µM)
# Method in brief: (§1)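 After 5 days of treatment, lung cancer cells in 1536-well plates were fixed and stained in a single step (final 0.05% Triton X-100, 1% formaldehyde, 1 ug/ml Hoechst) and their nuclei counted on 4× images. Treatment had been applied by pin tool the day after seeding as one drug alone or as a fixed anchor-drug dose with five library-drug doses (not always all listed) in √10 steps. Relative viability is the nuclei count of treated wells divided by that of vehicle wells, and values are medians of duplicate plates.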
# Wnt-C59 + Pictilisib = compound: CC1=NC=CC(=C1)C2=CC=C(C=C2)CC(=O)NC3=CC=C(C=C3)C4=CN=CC=C4 [Wnt-C59] + CS(=O)(=O)N1CCN(Cc2cc3nc(-c4cccc5[nH]ncc45)nc(N4CCOCC4)c3s2)CC1 [Pictilisib] (partner 1 µM)
# Method in brief: as §1
# Wnt-C59 + Crizotinib = compound: CC1=NC=CC(=C1)C2=CC=C(C=C2)CC(=O)NC3=CC=C(C=C3)C4=CN=CC=C4 [Wnt-C59] + C[C@@H](Oc1cc(-c2cnn(C3CCNCC3)c2)cnc1N)c1c(Cl)ccc(F)c1Cl [Crizotinib] (partner 1 µM)
# Method in brief: as §1
# Lapatinib + Crizotinib = compound: CS(=O)(=O)CCNCc1ccc(-c2ccc3ncnc(Nc4ccc(OCc5cccc(F)c5)c(Cl)c4)c3c2)o1 [Lapatinib] + C[C@@H](Oc1cc(-c2cnn(C3CCNCC3)c2)cnc1N)c1c(Cl)ccc(F)c1Cl [Crizotinib] (partner 1 µM)
# Method in brief: as §1
Cell Line,relative viability (Lapatinib + Phenformin; first compound 0.06325 µM),relative viability (Lapatinib + Phenformin; first compound 0.2 µM),relative viability (Lapatinib + Phenformin; first compound 0.6325 µM),relative viability (Lapatinib + Phenformin; first compound 2 µM),relative viability (Wnt-C59 + Pictilisib; first compound 0.001 µM),relative viability (Wnt-C59 + Pictilisib; first compound 0.01 µM),relative viability (Wnt-C59 + Pictilisib; first compound 0.03162 µM),relative viability (Wnt-C59 + Pictilisib; first compound 0.1 µM),relative viability (Wnt-C59 + Crizotinib; first compound 0.001 µM),relative viability (Wnt-C59 + Crizotinib; first compound 0.01 µM),relative viability (Wnt-C59 + Crizotinib; first compound 0.03162 µM),relative viability (Wnt-C59 + Crizotinib; first compound 0.1 µM),relative viability (Lapatinib + Crizotinib; first compound 0.06325 µM),relative viability (Lapatinib + Crizotinib; first compound 0.2 µM),relative viability (Lapatinib + Crizotinib; first compound 0.6325 µM),relative viability (Lapatinib + Crizotinib; first compound 2 µM),relative viability (Lapatinib + Phenformin; first compound 0.02 µM),relative viability (Lapatinib + Crizotinib; first compound 0.02 µM)
NCI-H650,0.467,0.428,0.456,0.473,0.838,0.94,0.982,0.685,0.699,0.75,0.874,0.691,0.637,0.872,0.624,0.69,,
LOU-NH91,0.533,0.479,0.533,0.433,0.541,0.577,0.508,0.565,0.732,0.65,0.738,0.766,0.626,0.599,0.547,0.534,0.463,0.697
NCI-H2023,,0.417,0.429,0.307,0.27,0.244,0.238,0.235,0.701,0.65,0.686,0.594,0.419,0.491,0.633,0.281,0.395,0.539
LC-2-ad,0.438,0.551,0.478,0.519,0.435,0.43,0.469,0.472,0.45,0.442,0.553,0.279,0.487,0.473,0.436,0.375,,
NCI-H1355,0.37,0.455,0.428,0.367,0.486,0.325,0.38,0.393,1.01,1.05,1.06,0.966,0.854,1.02,1.02,0.606,,
NCI-H2347,0.376,0.498,0.641,0.337,0.628,0.566,0.86,0.634,0.673,0.598,0.612,0.653,0.654,0.722,0.649,0.671,,0.7
NCI-H441,0.43,0.946,0.901,0.873,0.557,0.428,0.592,0.573,0.731,0.906,0.805,0.615,0.861,0.803,0.689,0.721,,0.681
NCI-H1944,0.14,0.188,0.193,0.186,0.372,0.312,0.322,0.336,1.04,0.971,1.18,1.07,,0.811,0.808,0.56,0.178,
NCI-H661,0.263,0.273,0.265,0.268,0.414,0.441,0.391,0.442,1,1.05,0.981,0.948,1.15,1.29,1.05,0.762,0.273,0.979
201T,0.343,0.438,0.44,0.431,0.704,0.676,0.676,0.698,1.01,1.02,1.01,1.03,0.996,1.02,0.966,0.977,0.387,0.869
NCI-H2087,0.354,0.485,0.552,0.406,0.94,0.816,0.819,0.907,0.737,0.884,0.792,0.778,0.88,1.1,0.692,0.766,,0.876
BEN,0.301,0.26,0.241,0.229,0.524,0.667,0.613,0.596,0.897,0.84,1.02,0.923,0.672,1.06,0.828,0.747,,0.826
COR-L23,0.421,0.474,0.455,0.42,0.745,0.653,0.818,0.79,0.653,0.567,0.637,0.67,0.676,0.697,0.602,0.581,0.419,0.71
ChaGo-K-1,0.386,0.465,0.454,0.414,0.461,,0.862,1.02,1.08,,1.21,1.09,1.07,1.19,1.09,1.09,0.379,
NCI-H1755,0.595,0.642,0.59,0.59,0.374,0.433,0.459,0.433,0.899,0.826,0.827,0.839,0.82,0.899,0.818,0.809,0.409,0.851
EMC-BAC-2,0.407,0.532,0.549,0.499,0.5,0.491,0.463,0.453,0.642,0.649,0.636,0.678,0.635,0.788,0.661,0.74,0.422,0.729
NCI-H1734,0.288,0.374,0.451,0.414,0.438,0.438,0.473,0.461,0.642,0.618,0.773,0.66,0.481,0.737,0.669,0.663,0.407,
NCI-H727,,0.536,0.511,0.508,0.381,0.342,0.43,0.309,0.843,0.779,0.944,0.682,0.663,0.657,0.718,0.572,,0.77
A-427,0.279,0.346,0.317,0.367,0.756,0.554,0.717,0.799,0.982,0.798,0.962,0.905,0.804,0.945,0.936,0.77,,
